Among the data in ChEMBL document CHEMBL3507680, “University of Dundee, Gates Library screen for HepG2 cell viability” are cytotoxicity values, retold here.

This data set is described as follows: Human HepG2 cell viability assay in 384 well format. In kind it is toxicity, cell-based. Further details: dose 125 nL, time 70.5 hour; cytotoxicity at 70.5 h: concentration not given beside the values. Particulars: HepG2 cells, read-out: Inhibition.

As for `CCn1ncnc1CN1CCc2[nH]cnc2C1CCc1ccccc1` (stereo unspecified), the cytotoxicity at 70.5 h is -4.41%.

As for `Cc1oc(-c2cccc(F)c2F)nc1CN(C)CCO`, the cytotoxicity at 70.5 h was -7.35%.

`CCOCc1nc(-c2ccc(F)cc2Cl)n(C)n1`: the cytotoxicity at 70.5 h was -15.1%.

`OC(c1ccccc1)c1cn(C2CCN(Cc3nccs3)CC2)nn1` (stereo unspecified): the cytotoxicity at 70.5 h was -11.3%.

Consider `Cc1ccc(N2CCCC(c3[nH]ncc3-c3ccccc3)C2)nn1` (stereo unspecified), for which the cytotoxicity at 70.5 h is -8.56%.

With `COc1ccc(-c2ncccc2C(=O)N2C[C@H]3CC[C@@H]2C3)cn1`, the cytotoxicity at 70.5 h is -2.51%.

Turning to `CCc1nc(NCC2CCCN(C(=O)C3CC3)C2)c2cnn(C)c2n1` (stereo unspecified), the cytotoxicity at 70.5 h is -16.2%.

Consider `N#Cc1cccc(N2CCCC(CO)(CCOc3ccccc3)C2)n1` (stereo unspecified), for which the cytotoxicity at 70.5 h stood at 8.55%.

Take `O=C(CCC1CC1)N1CCC(n2cc(C3(O)CCCC3)nn2)CC1`: the cytotoxicity at 70.5 h amounted to 24.3%.

Turning to `COCC(=O)N1CC[C@]2(O)CCN(C(=O)CCc3ccsc3)C[C@@H]2C1`, the cytotoxicity at 70.5 h is -10.1%.

As to `CN1CCN(C[C@@H]2CN(Cc3c(Cl)cncc3Cl)C[C@@H]2CO)CC1`, the cytotoxicity at 70.5 h was -11.7%.

Take `OC1(CNCCc2nc3c(s2)CCCC3)CCNC1` (stereo unspecified): the cytotoxicity at 70.5 h was -2.83%.

Consider `COCCN1CCN(C(=O)c2ccccc2C(C)=O)[C@H]2CS(=O)(=O)C[C@H]21`, for which the cytotoxicity at 70.5 h is -5.79%.

Regarding `COCCN1CCC(c2nc3c([nH]2)CC(C)(C)CNC3=O)CC1`, the cytotoxicity at 70.5 h was -4.63%.

Turning to `COCCN1C(=O)[C@H]2CC[C@@H]1CN(Cc1nnc(-c3ccccc3)o1)C2`, the cytotoxicity at 70.5 h is -4.89%.

Consider `Cc1cnc(C)c(-c2cc(O)c3c(c2)CN(c2ncccn2)CCO3)n1`, for which the cytotoxicity at 70.5 h amounted to 48.2%.

On to `Cc1ccc([C@H]2CN(C(=O)C3CCC3)C[C@@H]2N)o1`, for which the cytotoxicity at 70.5 h is -1.49%.

As to `COc1ccc2[nH]nc(CN3CCC(C(=O)N4CCCCC4)CC3)c2c1`, the cytotoxicity at 70.5 h was -1.62%.

On to `CC1(C)CC1(C(=O)N1CC(c2cccnc2)C1)c1ccccc1F` (stereo unspecified), for which the cytotoxicity at 70.5 h is -7.64%.

Take `O=C(CN1CCCC1c1nc2cc(F)ccc2[nH]1)NCc1ccccn1` (stereo unspecified): the cytotoxicity at 70.5 h was -3.28%.

With `FC(F)(F)C1CN(c2nc(-c3ccccc3)no2)CCO1` (stereo unspecified), the cytotoxicity at 70.5 h was -14.1%.

In the case of `CCOCCNC(=O)c1cc(COc2cncc(Cl)c2)on1`, the cytotoxicity at 70.5 h was -0.86%.

`Nc1nc2c(c(N3CCCC(OCc4ccccn4)C3)n1)CCNCC2` (stereo unspecified): the cytotoxicity at 70.5 h was -6.98%.

Regarding `O=C(CN1CC(c2ccccc2)CC1=O)NCc1cc2n(n1)CCNC2` (stereo unspecified), the cytotoxicity at 70.5 h is -8.02%.

Turning to `COCCCN(C(=O)c1ccc(-n2ccnc2)cc1)C1CCN(C)CC1`, the cytotoxicity at 70.5 h turned out to be 35.1%.

Take `O=C(CC1=CSC2=NCCCN12)N1CCCCCC1c1ccco1` (stereo unspecified): the cytotoxicity at 70.5 h was determined as 9.09%.

Consider `CC(C)n1ccnc1C1CCN(C(=O)c2ccccc2N(C)C)CC1`, for which the cytotoxicity at 70.5 h was -2.41%.

On to `CCOc1ccccc1N1CCN(CC2(O)CCCNC2)CC1` (stereo unspecified), for which the cytotoxicity at 70.5 h was -1.19%.

Turning to `COc1cc(C(=O)N2CCC3(CC2)Nc2ccccc2NC3=O)ccn1`, the cytotoxicity at 70.5 h is 19%.

With `c1ccc(Cc2nc(CNC3CCC4(CCNCC4)CC3)no2)cc1`, the cytotoxicity at 70.5 h was -4.21%.

`Cc1cccn2c(CNC(C)CCn3cccn3)cnc12` (stereo unspecified): the cytotoxicity at 70.5 h came out at 3.49%.

In the case of `Cc1nc(CCC(=O)N2Cc3cnc(-c4ccccc4)nc3C2)n[nH]1`, the cytotoxicity at 70.5 h was -14.8%.

Consider `Cc1nonc1OCCNC(=O)CCCc1ccc(Cl)cc1`, for which the cytotoxicity at 70.5 h was -5.01%.

Consider `Cc1cccc(=O)n1CCC(=O)N(C)Cc1cccc2ncccc12`, for which the cytotoxicity at 70.5 h is -15.2%.

Consider `Cc1ccc(-c2nc(CNS(=O)(=O)N(C)C)[nH]c2-c2ccccn2)cc1`, for which the cytotoxicity at 70.5 h is -2.34%.

In the case of `CCCN1CCC(N2CCN(c3cccc(C)n3)CC2)CC1`, the cytotoxicity at 70.5 h amounted to 5.86%.

In the case of `O=C(CCC1CCCN(C(=O)CCN2CCCCO2)C1)N1CCCC1` (stereo unspecified), the cytotoxicity at 70.5 h is -5.73%.

As to `CCc1nnc(CN(C)Cc2cccc(C(=O)Nc3cnn(C)c3)c2)o1`, the cytotoxicity at 70.5 h worked out at 3.92%.

`Fc1ccccc1Cc1noc(CN2CC[C@@H]3CCCC[C@H]3C2)n1`: the cytotoxicity at 70.5 h is -4.61%.

Take `O=C(O)C1(n2ccnc2)CCN(Cc2cc3ccccc3o2)CC1`: the cytotoxicity at 70.5 h was -5.42%.

Turning to `CN(Cc1n[nH]c2c1CCCC2)C(=O)c1cccc(CCC(C)(C)O)c1`, the cytotoxicity at 70.5 h is -4.47%.

Turning to `CN1C(=O)CC(C(=O)O)C12CCN(Cc1ccc(F)c(Cl)c1)CC2` (stereo unspecified), the cytotoxicity at 70.5 h amounted to 0.558%.

With `O=C1NCC2(CCCN(C(=O)c3ccc4c(c3)CCO4)C2)O1` (stereo unspecified), the cytotoxicity at 70.5 h was -4.91%.

Regarding `N#Cc1cccc(C(=O)N2CCC3(CCC(=O)N(C4CC4)C3)CC2)c1`, the cytotoxicity at 70.5 h is 6.81%.

Consider `CCc1nc(NC2CC(=O)N(CC3CCCCC3)C2)ncc1C` (stereo unspecified), for which the cytotoxicity at 70.5 h was -8.17%.

Take `Cc1ccc(N2CC[C@@]3(O)CCN(S(C)(=O)=O)C[C@H]3C2)nn1`: the cytotoxicity at 70.5 h is 6.8%.

As to `Cc1n[nH]c(C)c1-c1c(C#N)c(N)nc2c1CCc1[nH]ccc1-2`, the cytotoxicity at 70.5 h was -3.53%.

In the case of `CCN1CCC(CC(=O)NCC(O)c2cccc(OC)c2)CC1` (stereo unspecified), the cytotoxicity at 70.5 h is -6.22%.

Take `C=C(C)CN1CCC(n2cc(C3CCCC3)nn2)CC1`: the cytotoxicity at 70.5 h is -2.5%.

With `Cc1cc(C(=O)NCC2CCS(=O)(=O)C2)ccc1NC(=O)c1ccco1` (stereo unspecified), the cytotoxicity at 70.5 h turned out to be 2.82%.

Turning to `O=S1(=O)C[C@@H]2[C@H](C1)N(Cc1cc(Cl)cc(Cl)c1)CCN2CCO`, the cytotoxicity at 70.5 h was -1.4%.

Consider `CCOC(=O)c1coc(N2CCN(C(=O)c3cccc(OC)c3)CC2)n1`, for which the cytotoxicity at 70.5 h was -8.88%.

With `COc1cccc(CNC(=O)C(C)n2ccnc2C(C)C)c1OC` (stereo unspecified), the cytotoxicity at 70.5 h stood at 23.8%.

As to `CN(Cc1cc2n(n1)CCNC2)Cc1n[nH]c2c1CCCCC2`, the cytotoxicity at 70.5 h was -1.36%.

As for `CN(Cc1csc(-c2ccccc2)n1)Cc1ncccc1C(=O)O`, the cytotoxicity at 70.5 h was 11.5%.

`COC(=O)CNC(=O)c1cn(Cc2ccccc2F)nn1`: the cytotoxicity at 70.5 h is -5.61%.

Regarding `COc1ccc(CN2CC[C@@H](N)[C@@H](OC)C2)cc1Cn1cncn1`, the cytotoxicity at 70.5 h is -6.47%.

Regarding `COc1ccc(NC(=O)CCN2CC=C(c3cnn(C)c3)CC2)c(C)c1`, the cytotoxicity at 70.5 h came to 2.12%.

Consider `CN(Cc1cc(C(C)(C)C)n[nH]1)C(=O)CCC(=O)NC1CCCC1`, for which the cytotoxicity at 70.5 h is -9.2%.

Take `CCCN(CCO)C(=O)c1cc(COc2ccc3c(c2)CCCC3)on1`: the cytotoxicity at 70.5 h worked out at 11.2%.

`O=C(CCC1CCN(C(=O)c2cc[nH]c2)CC1)NCc1cccc(Cl)c1`: the cytotoxicity at 70.5 h is -9.67%.

With `CCC(C)N(Cc1ccsc1)C(=O)c1ccc(CO)cc1` (stereo unspecified), the cytotoxicity at 70.5 h is -0.23%.

`O=C(O)COc1ccc(Cl)cc1CN1CCC2(CCOCC2)CC1`: the cytotoxicity at 70.5 h turned out to be 2.03%.

On to `CSCC[C@H](NC(C)=O)C(=O)N(C)Cc1ccc(-n2cccn2)cc1`, for which the cytotoxicity at 70.5 h was 23.9%.

`NCC1CN(C(=O)Cn2ncc(N3CCCCC3)cc2=O)CCO1` (stereo unspecified): the cytotoxicity at 70.5 h was -2.61%.

As to `CN(CCCc1nccn1C)C(=O)C1CCN(C(=O)C2CC2)CC1`, the cytotoxicity at 70.5 h was 0.477%.

For the molecule `Cc1cccc(CNCC2(O)CCCN(CC3CCCCC3)C2=O)n1` (stereo unspecified), the cytotoxicity at 70.5 h is -5.28%.

As to `CC(=O)c1cccc(-c2c[nH]c(C)n2)c1`, the cytotoxicity at 70.5 h is -7.11%.

As for `Cc1nc(CNC(=O)c2cc(Cn3ccnc3C(C)C)[nH]n2)sc1C`, the cytotoxicity at 70.5 h was -14.3%.

Take `CCC(CO)N(Cc1ccccn1)C(=O)c1ccc(C)c(Cl)c1` (stereo unspecified): the cytotoxicity at 70.5 h was -5.65%.

On to `COc1cccc2c1OCC(CNc1cc(N)nc(SC)n1)C2` (stereo unspecified), for which the cytotoxicity at 70.5 h was -8.3%.

In the case of `Cc1cnc(NC(=O)c2cccc(CN(C)Cc3ccno3)c2)s1`, the cytotoxicity at 70.5 h was -4.32%.

On to `c1cnc2ccc(C[C@@H]3CC[C@H](CN4CCCOCC4)O3)cc2c1`, for which the cytotoxicity at 70.5 h is -10.1%.

For the molecule `CCSc1ncc(CN2CCN(c3ncc(C)c(N)n3)CC2)cn1`, the cytotoxicity at 70.5 h is -9.95%.

Consider `CN(CCc1ccccc1)c1cnn(Cc2ccccn2)c(=O)c1`, for which the cytotoxicity at 70.5 h is -4.29%.

For `O=C(Nc1ccccc1CCO)c1cccc(CN2CC[C@H](O)C2)c1`, the cytotoxicity at 70.5 h is -8.22%.

For the molecule `CN(Cc1csc(-c2cccs2)n1)C(=O)CCn1ccc(=O)[nH]c1=O`, the cytotoxicity at 70.5 h was 10.9%.

`COc1ccc2c(=O)n(CC3CCCCN3C)ccc2c1OC` (stereo unspecified): the cytotoxicity at 70.5 h was -4.5%.

On to `Cc1cccc(C(C(=O)N2CC(c3cccnc3)C2)N(C)C)c1` (stereo unspecified), for which the cytotoxicity at 70.5 h was -0.966%.

`CCN(C)C(=O)c1ccc(N(C)Cc2cc(-c3cccnc3)no2)nc1`: the cytotoxicity at 70.5 h stood at 0.809%.

Regarding `CCO[C@H]1CN(C)C[C@@H]1NC(=O)c1cc(C)nc2c(C)c(C)ccc12`, the cytotoxicity at 70.5 h is -6.51%.

On to `CC(C)c1cc(C(=O)N2CCC3(CC2)c2ccccc2[C@@H](N)[C@@H]3O)cs1`, for which the cytotoxicity at 70.5 h is -10.7%.

`O=C(O)CSc1nnc(-c2ccn[nH]2)n1-c1ccccc1C(F)(F)F`: the cytotoxicity at 70.5 h was -3.95%.

With `CCC1(C(=O)O)CCCN(C(=O)c2ccc(O)c(Cl)c2)C1` (stereo unspecified), the cytotoxicity at 70.5 h is -4.39%.

Consider `C[C@@H]1CN(CC(=O)NCc2ccccn2)C[C@]1(C)O`, for which the cytotoxicity at 70.5 h is -1.62%.

Turning to `CC(C)c1nc(C(=O)N2C[C@H]3CC[C@@H]2CN(C2CCOCC2)C3)cs1`, the cytotoxicity at 70.5 h is -7.88%.

For `CCCc1nc(N2CCCC3(CCNC3)C2)c2cnn(C)c2n1` (stereo unspecified), the cytotoxicity at 70.5 h is -7.26%.

Take `CN1[C@@H](c2ccccc2)[C@@H](C(=O)NCc2ccncc2)C[C@@]1(C)C(=O)O`: the cytotoxicity at 70.5 h was -22.3%.

For the molecule `O=C(N1CCCC1)N1CCC(c2nccn2Cc2cscn2)CC1`, the cytotoxicity at 70.5 h was -5.23%.

In the case of `COc1ccccc1CCN1CCCC(CN(C)Cc2cc(C)n[nH]2)C1` (stereo unspecified), the cytotoxicity at 70.5 h was -8.68%.

For the molecule `CCCn1cc(-c2cc(C(=O)N(C)C)c3ccc(C)cc3n2)cn1`, the cytotoxicity at 70.5 h was -9.76%.

In the case of `Cc1cc(CNC(=O)C2CCN(CC(N)=O)CC2)cc(C)n1`, the cytotoxicity at 70.5 h was -6.5%.

On to `Cc1cnn(-c2cncc(C(N)=O)c2)c1`, for which the cytotoxicity at 70.5 h was -5.78%.

For the molecule `Cc1cccc(OCC2CCCN(C(=O)CCn3ccccc3=O)C2)c1` (stereo unspecified), the cytotoxicity at 70.5 h was -11.2%.

As for `CC(Cn1cccn1)C(=O)N1CCC(NS(C)(=O)=O)CC1` (stereo unspecified), the cytotoxicity at 70.5 h is -6.23%.

Turning to `Cc1cc(N[C@H](CO)COCc2ccccc2)n2nc(C)cc2n1`, the cytotoxicity at 70.5 h is -0.86%.
